Our source for the melting point values is patent US7964628B2, “Fibrinogen receptor antagonists and their use” (Piramal Life Sciences Limited, priority 2003, dated 2011).

Structures can show the parent of a compound that is named as a salt.

For `CCOC(=O)COc1ccc(C(=O)CN2Cc3cc(C(=N)NO)ccc3C2=O)cc1SCC` (hydrate or solvate) [Example 34, (2-Ethylsulfanyl-4-{2-[5-(N-hydroxycarbamimidoyl)-1-oxo-1,3-dihydro-isoindol-2-yl]-acetyl}-phenoxy)-acetic acid ethyl ester], the melting point fell in the range of 190 to 191 °C.

Compound `C=CCOc1cc(OCC(=O)OCC)ccc1C(=O)CN1Cc2cc(C(=N)NO)ccc2C1=O` (hydrate or solvate) [Example 83, (3-Allyloxy-4-{2-[5-(N-hydroxycarbamimidoyl)-1-oxo-1,3-dihydro-isoindol-2-yl]-acetyl}-phenoxy)-acetic acid ethyl ester] showed a melting point of 182 to 183 °C.

Compound `CCOC(=O)COc1ccc(C(=O)CN2Cc3cc(C(=N)NO)ccc3C2=O)c(OCC(=O)OCC)c1` [Example 48, (3-Ethoxycarbonylmethoxy-4-{2-[5-(N-hydroxycarbamimidoyl)-1-oxo-1,3-dihydro-isoindol-2-yl]-acetyl}-phenoxy)-acetic acid ethyl ester] had a melting point of 139 to 140 °C.

In turn, `CCOC(=O)COc1ccc(C(=O)CN2Cc3cc(C(=N)NO)ccc3C2=O)c(O)c1OCC(=O)OCC` [Example 64, (2-Ethoxycarbonylmethoxy-3-hydroxy-4-{2-[5-(N-hydroxycarbamimidoyl)-1-oxo-1,3-dihydro-isoindol-2-yl]-acetyl}-phenoxy)-acetic acid ethyl ester] registered a melting point of 153 to 155 °C.

`CCOC(=O)CN1CCN(C(=O)CN2Cc3cc(C(=N)N)ccc3C2=O)CC1` (as salt: salt) [Example 66, (4-{2-[5-Carbamimidoyl-1-oxo-1,3-dihydro-isoindol-2-yl]-acetyl}-piperazine-1-yl)-acetic acid ethyl ester] came in with a melting point of 211 to 212 °C.

`COC(=O)NC(=N)c1ccc2c(c1)CN(CC(=O)c1ccc(OCC(=O)OCC(C)C)cc1)C2=O` [Example 11, (4-{2-[5-(Imino-methoxycarbonylamino-methyl)-1-oxo-1,3-dihydro-isoindol-2-yl]-acetyl}-phenoxy)-acetic acid isobutyl ester] gave a melting point of 162 to 163 °C.

The compound `CC(C)COC(=O)COc1ccc(C(=O)CN2Cc3cc(C(=N)N)ccc3C2=O)cc1OCC(=O)OCC(C)C` (as salt: hydroiodid) [Example 24, (4-{2-[5-Carbamimidoyl-1-oxo-1,3-dihydro-isoindol-2-yl]-acetyl}-2-isobutoxycarbonylmethoxy-phenoxy)acetic acid isobutyl ester] showed a melting point of 95 to 96 °C.

Compound `COC(=O)COc1ccc(C(=O)CN2Cc3cc(C(=N)N)ccc3C2=O)cc1` (as salt: salt) [Example 1, (4-{2-[5-Carbamimidoyl-1-oxo-1,3-dihydro-isoindol-2-yl]-acetyl}-phenoxy)-acetic acid methyl ester] gave a melting point of 181 to 182 °C.

`CCCOc1cc(OCC(=O)OCC)ccc1C(=O)CN1Cc2cc(C(=N)NO)ccc2C1=O` (hydrate or solvate) [Example 46, (4-{2-[5-(N-Hydroxycarbamimidoyl)-1-oxo-1,3-dihydro-isoindol-2-yl]-acetyl}-3-propoxy-phenoxy)-acetic acid ethyl ester]: the melting point was in the range of 175 to 177 °C.

In the case of `N=C(N)c1ccc2c(c1)CN(CC(=O)c1ccc(OCC(=O)OCc3ccccc3)cc1)C2=O` (as salt: salt) (hydrate or solvate) [Example 16, (4-{2-[5-Carbamimidoyl-1-oxo-1,3-dihydro-isoindol-2-yl]-acetyl}-phenoxy)-acetic acid benzyl ester], the melting point is 190 °C (dec.).

In turn, `CC(C)OC(=O)COc1ccc(C(=O)CN2Cc3cc(C(=N)NC(=O)OCc4ccccc4)ccc3C2=O)cc1` (hydrate or solvate) [Example 8, (4-{2-[5-(Benzyloxycarbonylamino-imino-methyl)-1-oxo-1,3-dihydro-isoindol-2-yl]-acetyl}-phenoxy)-acetic acid isopropyl ester] had a melting point of 156 to 158 °C.

`CC(C)OC(=O)COc1ccc(C(=O)CN2Cc3cc(C(=N)NO)ccc3C2=O)cc1` (hydrate or solvate) [Example 9, (4-{2-[5-(N-Hydroxycarbamimidoyl)-1-oxo-1,3-dihydro-isoindol-2-yl]-acetyl}-phenoxy)-acetic acid isopropyl ester]: the melting point lay within 164 to 166 °C.

With `CC(C)COC(=O)NC(=N)c1ccc2c(c1)CN(CC(=O)c1ccc(OCC(=O)OC(C)C)cc1)C2=O` (hydrate or solvate) [Example 7, (4-{2-[5-(Imino-isobutoxycarbonylamino-methyl)-1-oxo-1,3-dihydro-isoindol-2-yl]-acetyl}-phenoxy)-acetic acid isopropyl ester], the melting point was in the range of 155 to 157 °C.

Turning to `COC(=O)NC(=N)c1ccc2c(c1)CN(CC(=O)c1ccc(OCC(=O)OC(C)C)cc1)C2=O` [Example 6, (4-{2-[5-(Imino-methoxycarbonylamino-methyl)-1-oxo-1,3-dihydro-isoindol-2-yl]-acetyl}-phenoxy)-acetic acid isopropyl ester], the melting point lay within 183 to 184 °C.

For `CCOC(=O)C(CCNC(=O)OCc1ccccc1)Oc1ccc(C(=O)CN2Cc3cc(C(=N)NO)ccc3C2=O)cc1` (stereo not shown) [Example 28, 4-Benzyloxycarbonylamino-2-(4-{2-[5-(N-hydroxycarbamimidoyl)-1-oxo-1,3-dihydro-isoindol-2-yl]-acetyl}-phenoxy)-butyric acid ethyl ester], the melting point was 174 to 175 °C.

`CCOC(=O)COc1ccc(O)c(C(=O)CN2Cc3cc(C(=N)NO)ccc3C2=O)c1` [Example 61, (4-Hydroxy-3-{2-[5-(N-hydroxycarbamimidoyl)-1-oxo-1,3-dihydro-isoindol-2-yl]-acetyl}-phenoxy)-acetic acid ethyl ester]: the melting point lay within 158 to 159 °C.

In turn, `CCOC(=O)COc1ccc(C(=O)CN2Cc3cc(NC(C)=N)ccc3C2=O)c(O)c1` (as salt: iodide) (hydrate or solvate) [Example 74, (4-{2-[5-Acetimidoylamino-1-oxo-1,3-dihydro-isoindol-2-yl]-acetyl}-3-hydroxy-phenoxy)-acetic acid ethyl ester] showed a melting point of 196 to 197 °C.

`CCOC(=O)COc1ccc(C(=O)CN2Cc3cc(C(=N)N)ccc3C2=O)cc1SCC` (as salt: salt) (hydrate or solvate) [Example 33, (4-{2-[5-Carbamimidoyl-1-oxo-1,3-dihydro-isoindol-2-yl]-acetyl}-2-ethylsulfanyl-phenoxy)-acetic acid ethyl ester] had a melting point of 185 to 186 °C.

`N=C(NO)c1ccc2c(c1)CN(CC(=O)c1ccc(OCC(=O)OCc3ccccc3)cc1O)C2=O` [Example 43, (3-Hydroxy-4-{2-[5-(N-hydroxycarbamimidoyl)-1-oxo-1,3-dihydro-isoindol-2-yl]-acetyl}-phenoxy)-acetic acid benzyl ester] had a melting point of 183 to 184 °C.

The compound `CC(C)OC(=O)COc1ccc(C(=O)CN2Cc3cc(C(=N)N)ccc3C2=O)cc1` (hydrate or solvate) [Example 5, (4-{2-[5-Carbamimidoyl-1-oxo-1,3-dihydro-isoindol-2-yl]-acetyl}-phenoxy)-acetic acid isopropyl ester] registered a melting point of 162 °C.

In turn, `COC(=O)CSc1ccc(C(=O)CN2Cc3cc(C(=N)NO)ccc3C2=O)cc1` [Example 29, (4-{2-[5-(N-Hydroxycarbamimidoyl)-1-oxo-1,3-dihydro-isoindol-2-yl]-acetyl}-phenylsulfanyl)-acetic acid methyl ester] came in with a melting point of 193 to 194 °C.

`CCOC(=O)COc1ccc(C(=O)CN2Cc3cc(C(=N)NO)ccc3C2=O)c(O)c1C` (hydrate or solvate) [Example 55, (3-Hydroxy-4-{2-[5-(N-hydroxycarbamimidoyl)-1-oxo-1,3-dihydro-isoindol-2-yl]-acetyl}-2-methyl-phenoxy)-acetic acid ethyl ester] returned a melting point of 226 to 228 °C.

With `COC(=O)COc1ccc(C(=O)CN2Cc3cc(C(=N)NO)ccc3C2=O)cc1` (hydrate or solvate) [Example 2, (4-{2-[5-(N-Hydroxycarbamimidoyl)-1-oxo-1,3-dihydro-isoindol-2-yl]-acetyl}-phenoxy)-acetic acid methyl ester], the melting point was 175 to 176 °C.

Regarding `CCOC(=O)COc1cc(O)c(C(=O)CN2Cc3cc(C(=N)NO)ccc3C2=O)c(OC)c1` [Example 62, (3-Hydroxy-4-{2-[5-(N-hydroxycarbamimidoyl)-1-oxo-1,3-dihydro-isoindol-2-yl]-acetyl}-5-methoxy-phenoxy)-acetic acid ethyl ester], the melting point was 209 to 210 °C.

Compound `CCOC(=O)COc1cc(O)c(C(=O)CN2Cc3cc(C(=N)NO)ccc3C2=O)cc1OCC(=O)OCC` (hydrate or solvate) [Example 65, (2-Ethoxycarbonylmethoxy-5-hydroxy-4-{2-[5-(N-hydroxycarbamimidoyl)-1-oxo-1,3-dihydro-isoindol-2-yl]-acetyl}-phenoxy)-acetic acid ethyl ester] returned a melting point of 186 to 188 °C.

On to `CCCc1c(OCC(=O)O)ccc(C(=O)CN2Cc3cc(C(=N)N)ccc3C2=O)c1O` (as salt: trifluoroacetic acid salt) [Example 60, (4-{2-[5-Carbamimidoyl-1-oxo-1,3-dihydro-isoindol-2-yl]-acetyl}-3-hydroxy-2-propyl-phenoxy)-acetic acid], for which the melting point was 222 to 223 °C.

With `CCOC(=O)COc1ccc(C(=O)CN2Cc3cc(C(=N)N)ccc3C2=O)c(O)c1` (as salt: salt) [Example 41, (4-{2-[5-Carbamimidoyl-1-oxo-1,3-dihydro-isoindol-2-yl]-acetyl}-3-hydroxy-phenoxy)-acetic acid ethyl ester], the melting point was 195 to 196 °C.

`CCOC(=O)COc1ccc(C(=O)CN2Cc3cc(C(=N)NO)ccc3C2=O)cc1OCC(=O)OCC` [Example 21, (2-Ethoxycarbonylmethoxy-4-{2-[5-(N-hydroxycarbamimidoyl)-1-oxo-1,3-dihydro-isoindol-2-yl]-acetyl}-phenoxy)-acetic acid ethyl ester] gave a melting point of 163 to 164 °C.

As a reminder, the melting point is the temperature, or range, at which the solid turns liquid.
